Converted amounts (≈) assume the structure as drawn. The source made the active and inactive calls. The calls are words filed in the database; no cut-off is given here.
What was measured:
Acinetobacter baumannii [1] = test: Antibacterial activity against Acinetobacter baumannii ATCC19606 assessed as bacterial growth inhibition incubated for 18 to 20 hrs by microbroth dilution method; assay type: functional; conditions: time 18-20 hrs
[2] = Cytotoxicity against GFP fused human MT4 cells cultured under serum free condition for 24 hrs by CellTiter-Glo assay; assay type: toxicity, cell-based; conditions: GFP fused MT4 cells
[3] = Inhibition of wildtype Acinetobacter baumannii MsbA preincubated for 30 mins followed by ATP addition and measured after 1 hrs by Transcreener ADP2 F1 assay
Acinetobacter baumannii [4] = test: Antibacterial activity against Acinetobacter baumannii ATCC19606 incubated for 18 to 20 hrs in presence of 1% of human serum by microbroth dilution method; assay type: functional; conditions: time 18-20 hrs
Acinetobacter baumannii [5] = test: Selectivity ratio of MIC95 for antibacterial activity against Acinetobacter baumannii ATCC19606 in the presence of 1% human serum to MIC95 for antibacterial activity against Acinetobacter baumannii ATCC19606; assay type: functional
Acinetobacter baumannii [6] = test: Antibacterial activity against Acinetobacter baumannii ATCC19606 incubated for 18 to 20 hrs in presence of 10% human serum by microbroth dilution method; assay type: functional; conditions: time 18-20 hrs

SMILES	MIC95 (Acinetobacter baumannii [1])	EC50 at 24 h [2]	EC50 [3]	MIC95 (Acinetobacter baumannii [4])	Selectivity ratio (Acinetobacter baumannii [5])	Activity (Acinetobacter baumannii [6])
O=C(CCCOc1ccc(NS(=O)(=O)c2ccc(Oc3ccc(Cl)cc3)nc2)c(C(=O)O)c1)Nc1ccc(NS(=O)(=O)c2ccc(Oc3ccc(Cl)cc3)nc2)c(C(=O)O)c1	0.012 µM (≈ 0.0109 µg/mL)	36300 nM	29 nM	3.12 µM	260	–
O=C(CCCOc1ccc(NS(=O)(=O)c2ccc(-c3ccccc3)s2)c(C(=O)O)c1)Nc1ccc(NS(=O)(=O)c2ccc(-c3ccccc3)s2)c(C(=O)O)c1	0.012 µM (≈ 0.00982 µg/mL)	> 42000 nM	< 10 nM	3.12 µM	260	–
CCCCc1ccc(S(=O)(=O)Nc2ccc(NC(=O)CCC(=O)Nc3ccc(NS(=O)(=O)c4ccc(CCCC)nc4)c(C(=O)O)c3)cc2C(=O)O)cn1	2.21 µM (≈ 1.73 µg/mL)	–	82 nM	25 µM	11	–
CCCCc1ccc(S(=O)(=O)Nc2ccc(NC(=O)CCC(=O)Nc3ccc(NS(=O)(=O)c4ccc(CCCC)cc4)c(C(=O)O)c3)c(C(=O)O)c2)cc1	0.391 µM (≈ 0.305 µg/mL)	–	124 nM	12.5 µM	32	–
CCCCc1ccc(S(=O)(=O)Nc2ccc(OCCCCOc3ccc(NS(=O)(=O)c4ccc(CCCC)cc4)c(C(=O)O)c3)cc2C(=O)O)cc1	0.049 µM (≈ 0.0369 µg/mL)	9800 nM	5.4 nM	12.5 µM	255	–
CCCCc1ccc(S(=O)(=O)Nc2ccc(NC(=O)CCC(=O)Nc3ccc(NS(=O)(=O)c4ccccc4)c(C(=O)O)c3)cc2C(=O)O)cc1	0.782 µM (≈ 0.565 µg/mL)	–	311 nM	12.5 µM	16	–
CCCCc1ccc(S(=O)(=O)Nc2ccc(NC(=O)CCC(=O)Nc3ccc(NS(=O)(=O)c4ccc(CCCC)cc4)c(-c4nn[nH]n4)c3)cc2C(=O)O)cc1	0.553 µM (≈ 0.444 µg/mL)	–	291 nM	25 µM	45	–
Cn1nc(-c2ccccc2)cc1S(=O)(=O)Nc1ccc(NC(=O)CCCOc2ccc(NS(=O)(=O)c3cc(-c4ccccc4)nn3C)c(C(=O)O)c2)cc1C(=O)O	0.024 µM (≈ 0.0195 µg/mL)	700 nM	3.8 nM	1.11 µM	46	–
CCCCc1ccc(S(=O)(=O)Nc2ccc(NC/C=C\CNc3ccc(NS(=O)(=O)c4ccc(CCCC)cc4)c(C(=O)O)c3)cc2C(=O)O)cc1	3.12 µM (≈ 2.34 µg/mL)	–	> 198000 nM	25 µM	8	–
CCCCc1ccc(S(=O)(=O)Nc2ccc(NC(=O)CCC(=O)Nc3ccc(NS(=O)(=O)c4ccc(CCCC)cc4)c(P(=O)(O)O)c3)cc2C(=O)O)cc1	1.56 µM (≈ 1.27 µg/mL)	–	416 nM	25 µM	16	–
O=C(CCCOc1ccc(NS(=O)(=O)c2ccc(-c3ccc(Cl)cc3)s2)c(C(=O)O)c1)Nc1ccc(NS(=O)(=O)c2ccc(-c3ccc(Cl)cc3)s2)c(C(=O)O)c1	0.012 µM (≈ 0.0106 µg/mL)	3400 nM	< 10 nM	2.21 µM	184	–
O=C(O)c1cc(CN[C@H]2C[C@@H](CNc3ccc(NS(=O)(=O)c4cnn(-c5ccc(Cl)cc5)c4)c(C(=O)O)c3)C2)ccc1NS(=O)(=O)c1cnn(-c2ccc(Cl)cc2)c1	0.024 µM (≈ 0.0208 µg/mL)	32700 nM	2380 nM	0.098 µM	–	inactive
O=C(CCC(=O)Nc1ccc(NS(=O)(=O)c2ccc(Oc3ccccc3)nc2)c(C(=O)O)c1)Nc1ccc(NS(=O)(=O)c2ccc(Oc3ccccc3)nc2)c(C(=O)O)c1	0.196 µM (≈ 0.167 µg/mL)	–	136 nM	6.25 µM	32	–
CCCCc1ccc(S(=O)(=O)Nc2ccc(NC(=O)/C=C\C(=O)Nc3ccc(NS(=O)(=O)c4ccc(CCCC)cc4)c(C(=O)O)c3)cc2C(=O)O)cc1	0.277 µM (≈ 0.215 µg/mL)	–	27 nM	8.84 µM	32	–
CCCCc1ccc(S(=O)(=O)Nc2ccc(NC(=O)CCC(=O)Nc3ccc(NS(=O)(=O)c4ccc(Oc5ccccc5)nc4)c(C(=O)O)c3)cc2C(=O)O)cc1	0.069 µM (≈ 0.0563 µg/mL)	–	47 nM	4.42 µM	64	–
CCCCc1ccc(S(=O)(=O)Nc2ccc(NCCCCNc3ccc(NS(=O)(=O)c4ccc(CCCC)cc4)c(C(=O)O)c3)cc2C(=O)O)cc1	0.783 µM (≈ 0.588 µg/mL)	–	623 nM	12.5 µM	16	–
CCCCc1ccc(S(=O)(=O)Nc2ccc(NC(=O)CCC(=O)Nc3ccc(NS(=O)(=O)c4ccc(N5CCOCC5)nc4)c(C(=O)O)c3)cc2C(=O)O)cc1	1.56 µM (≈ 1.26 µg/mL)	–	188 nM	25 µM	16	–
CCCCc1ccc(NS(=O)(=O)c2ccc(NC(=O)CCC(=O)Nc3ccc(NS(=O)(=O)c4ccc(CCCC)cc4)c(C(=O)O)c3)cc2C(=O)O)cc1	0.783 µM (≈ 0.61 µg/mL)	–	597 nM	25 µM	32	–
CCCCc1ccc(S(=O)(=O)Nc2ccc(NC(=O)CCNC(=O)c3ccc(NS(=O)(=O)c4ccc(CCCC)cc4)c(C(=O)O)c3)cc2C(=O)O)cc1	0.112 µM (≈ 0.0872 µg/mL)	–	83 nM	11.3 µM	101	–
CCCCc1ccc(S(=O)(=O)Nc2ccc(NC(=O)CCC(=O)Nc3ccc(N(C)S(=O)(=O)c4ccc(CCCC)cc4)c(C(=O)O)c3)cc2C(=O)O)cc1	1.11 µM (≈ 0.877 µg/mL)	–	456 nM	50 µM	45	–
Cc1c(S(=O)(=O)Nc2ccc(NC(=O)CCCOc3ccc(NS(=O)(=O)c4cnn(-c5ccc(Cl)cc5)c4C)c(C(=O)O)c3)cc2C(=O)O)cnn1-c1ccc(Cl)cc1	0.098 µM (≈ 0.0865 µg/mL)	900 nM	< 10 nM	1.56 µM	16	–
CCCCc1ccc(S(=O)(=O)Nc2ccc(NC(=O)CCC(=O)Nc3ccc(NS(=O)(=O)c4ccc(CCCC)cc4)c(C(=O)O)c3)cc2O)cc1	1.56 µM (≈ 1.17 µg/mL)	–	626 nM	25 µM	16	–
CCCCc1ccc(S(=O)(=O)Nc2ccc(NC(=O)CCC(=O)Nc3ccc(NS(=O)(=O)c4ccc(CCCC)cc4)c(C(=O)O)c3)cc2CC(=O)O)cc1	0.196 µM (≈ 0.155 µg/mL)	–	967 nM	25 µM	128	–
CCCCc1ccc(S(=O)(=O)Nc2ccc(NC(=O)CCC(=O)Nc3ccc(NS(C)(=O)=O)c(C(=O)O)c3)cc2C(=O)O)cc1	100 µM (≈ 66.1 µg/mL)	–	6400 nM	200 µM	2	–
CCCCc1ccc(S(=O)(=O)Nc2ccc(CNCCC(=O)Nc3ccc(NS(=O)(=O)c4ccc(CCCC)cc4)c(C(=O)O)c3)cc2C(=O)O)cc1	0.277 µM (≈ 0.212 µg/mL)	–	308 nM	1.56 µM	5.6	–
CCCCc1ccc(S(=O)(=O)Nc2ccc(NC(=O)CCCOc3ccc(NS(=O)(=O)c4ccc(CCCC)cc4)c(C(=O)O)c3)cc2C(=O)O)cc1	0.069 µM (≈ 0.0528 µg/mL)	–	16 nM	6.25 µM	91	–
O=C(CCCOc1ccc(NS(=O)(=O)c2cnn(-c3ccc(Cl)cc3)c2)c(C(=O)O)c1)Nc1ccc(NS(=O)(=O)c2cnn(-c3ccc(Cl)cc3)c2)c(C(=O)O)c1	0.062 µM (≈ 0.053 µg/mL)	22900 nM	< 10 nM	1.56 µM	25	–

Source: ChEMBL document CHEMBL5584343, “Cerastecin Inhibition of the Lipooligosaccharide Transporter MsbA to Combat Acinetobacter baumannii: From Screening Impurity to In Vivo Efficacy” (J Med Chem, 2024)
